Experimental data as given in patent US9956262B2, “Use of a bacterium isolated from the genus Pseudoalteromonas, cyclolipopeptides and uses thereof” (priority 2013, dated 2018).
≈ marks a conversion by molar mass, not a printed value. Read-outs that look alike come from different tables or passages of the source.

Assays:
strain hCg-6 = assay: Antibiotic sensitivity of the strain hCg-6; assay type: cell-based, Pseudoalteromonas hCg-6; set-up: key to Sensitive to: +: Positive; −: negative; f: slight reaction
Y. ruckeri ATCC 29473 = assay: MIC in liquid medium; assay type: cell-based; settings: 24 h
Experimental: (§1) The minimum inhibitory concentration (MIC) of the compounds nos. 1, 2, 3, 5, 7 and 8 was evaluated in a liquid medium following the procedure of Wiegand, Hilpert, and Hancock 2008. The spectrum of the target bacteria was extended to certain human pathogens such as the bacteria Salmonella enterica, a clinical strain of Escherichia coli having a beta-3-lactamase activity with an extended spectrum and Pseudomonas aeruginosa. After 24 h of incubation at an optimum temperature, the MICs are evaluated visually.

E. coli ML35 = assay: MIC in liquid medium; assay type: cell-based; settings: 24 h
Experimental: as §1

V. splendidus LGP 32 = assay: MIC in liquid medium; assay type: cell-based; settings: 24 h
Experimental: as §1

[1] = system: Pseudomonas aeruginosa ATCC 27853; assay: MIC in liquid medium; assay type: cell-based; settings: 24 h
Experimental: as §1

S. enterica CIP 8297 = assay: MIC in liquid medium; assay type: cell-based; settings: 24 h
Experimental: as §1

A. caviae CIP 7616 = assay: MIC in liquid medium; assay type: cell-based; settings: 24 h
Experimental: as §1

[2] = system: E. coli β résistante P7 (clinical strain); assay: MIC in liquid medium; assay type: cell-based; settings: 24 h
Experimental: as §1

E. coli SBS363 = assay: MIC in liquid medium; assay type: cell-based; settings: 24 h
Experimental: as §1

[3] = system: collection of strains of Vibrio splendidus isolated from oysters; assay: MIC in liquid medium on a collection of Vibrio splendidus strains isolated from oysters; assay type: cell-based; settings: collection of V. splendidus strains
Experimental: The cyclolipopeptide no. 2 was tested on a collection of strains of Vibrio splendidus isolated from oysters. It has minimum inhibitory concentrations from 1.56 to 50 μM. The MICs were defined in a liquid medium by using the procedure of Wiegand, Hilpert, and Hancock 2008.

V. harveyi ORM4 = assay: MIC in liquid medium; assay type: cell-based; settings: 24 h
Experimental: as §1

A. hydrophila CIP 7614 = assay: MIC in liquid medium; assay type: cell-based; settings: 24 h
Experimental: as §1

Compound | resistance/sensitivity of the strain hCg-6 (strain hCg-6) | MIC (Y. ruckeri ATCC 29473) [µM] | MIC (E. coli ML35) [µM] | MIC (V. splendidus LGP 32) [µM] | MIC (S. enterica CIP 8297) [µM] | MIC (E. coli SBS363) [µM] | also measured
CC1(C)S[C@@H]2[C@H](NC(=O)[C@H](N)c3ccc(O)cc3)C(=O)N2[C@H]1C(=O)O [amoxicillin] | sensitive |  |  |  |  |  | 
CO/N=C(\C(=O)N[C@@H]1C(=O)N2C(C(=O)[O-])=C(C[n+]3cccc4c3CCCC4)CS[C@H]12)c1csc(N)n1 [cefquinom] | sensitive |  |  |  |  |  | 
CC1=C(C(=O)O)N2C(=O)[C@@H](NC(=O)[C@H](N)c3ccccc3)[C@H]2SC1 [cephalexin] | resistant |  |  |  |  |  | 
CC=C1NC(=O)C(NC(=O)CC(O)CCCCCCC)C(O)CNC(=O)C(C(O)CN)NC(=O)C(C(O)CN)NC(=O)C(CCCNC(=N)N)NC(=O)C(CC(C)CC)NC(=O)C(CCN)NC1=O (stereo not shown) [cyclolipopeptide 2] |  | 1.1 (≈ 1.08 µg/mL) | 35 (≈ 34.5 µg/mL) | 4.4 (≈ 4.33 µg/mL) | 1.4 (≈ 1.38 µg/mL) | 0.1 (≈ 0.0985 µg/mL) | MIC [1]: 35.2 µM (≈ 34.7 µg/mL); MIC (A. caviae CIP 7616): 17.6 µM (≈ 17.3 µg/mL); MIC [2]: 8.8 µM (≈ 8.67 µg/mL); minimum inhibitory concentrations [3]: 1.56 to 50 µM
CC=C1NC(=O)C(NC(=O)CCCCCCC)C(O)CNC(=O)C(C(O)CN)NC(=O)C(C(O)CN)NC(=O)C(CCCNC(=N)N)NC(=O)C(CC(C)CC)NC(=O)C(CCN)NC1=O (stereo not shown) [cyclolipopeptide 3] |  | 50 (≈ 47.1 µg/mL) | 100 (≈ 94.1 µg/mL) | 50 (≈ 47.1 µg/mL) | 12.5 (≈ 11.8 µg/mL) | 50 (≈ 47.1 µg/mL) | MIC (V. harveyi ORM4): 50 µM (≈ 47.1 µg/mL)
CC=C1NC(=O)C(NC(=O)CCCCCCCC)C(O)CNC(=O)C(C(O)CN)NC(=O)C(C(O)CN)NC(=O)C(CCCNC(=N)N)NC(=O)C(CC(C)CC)NC(=O)C(CCN)NC1=O (stereo not shown) [cyclolipopeptide 5] |  | 6.3 (≈ 6.02 µg/mL) | 50 (≈ 47.8 µg/mL) | 6.3 (≈ 6.02 µg/mL) | 6.3 (≈ 6.02 µg/mL) | 25 (≈ 23.9 µg/mL) | MIC (V. harveyi ORM4): 6.3 µM (≈ 6.02 µg/mL); MIC (A. hydrophila CIP 7614): 25 µM (≈ 23.9 µg/mL)
CCN1CCN(c2cc3c(cc2F)c(=O)c(C(=O)O)cn3C2CC2)CC1 [enrofloxacin] | sensitive |  |  |  |  |  | 
CCn1cc(C(=O)O)c(=O)c2cc3c(cc21)OCO3 [oxolinic acid] | sensitive |  |  |  |  |  | 
Polymyxin B [reference compound] |  | 0.4 | 3.1 | 1.6 | 0.8 | 0.2 | MIC (V. harveyi ORM4): 25 µM; MIC [1]: 1.6 µM; MIC (A. caviae CIP 7616): 3.1 µM; MIC [2]: 1.6 µM; MIC (A. hydrophila CIP 7614): 0.8 µM
gentamycin | sensitive |  |  |  |  |  | 
polymyxin |  |  |  |  |  |  | resistance/sensitivity of the strain hCg-6 (strain hCg-6; 50 μg): resistant; Sensitive to (strain hCg-6; 300 ED): −
